“Also recorded” adds a separate entry of the source. Counter-ions that a name gives are not always drawn. Blank lines part the entries; values can stand above or below the compound they belong to.
Columns and labels:
human breast xenograft = conditions: in vivo; cited from earlier work
[1] = target: T1, PDE Peak A (PDE5) from SW480 cells (Homo sapiens, UniProt O76074); assay: cGMP hydrolysis by PDE Peak A (PDE5) isolated from SW480 cells; type: biochemical
T1 construct: To isolate the novel phosphodiesterase from SW480, approximately four hundred million SW480 cells were grown to confluence; endogenous in cells; host or cells: SW480 colon cancer cells; 105,000 g supernatant, DEAE-Trisacryl M fraction

[2] = target: T2, novel cGMP-specific PDE Peak B from SW480 cells (Homo sapiens, UniProt O00408); assay: cGMP hydrolysis by novel PDE Peak B isolated from SW480 cells; type: biochemical
T2 construct: IC50 Peak B (μM)
T2 sequence (O00408 whole entry): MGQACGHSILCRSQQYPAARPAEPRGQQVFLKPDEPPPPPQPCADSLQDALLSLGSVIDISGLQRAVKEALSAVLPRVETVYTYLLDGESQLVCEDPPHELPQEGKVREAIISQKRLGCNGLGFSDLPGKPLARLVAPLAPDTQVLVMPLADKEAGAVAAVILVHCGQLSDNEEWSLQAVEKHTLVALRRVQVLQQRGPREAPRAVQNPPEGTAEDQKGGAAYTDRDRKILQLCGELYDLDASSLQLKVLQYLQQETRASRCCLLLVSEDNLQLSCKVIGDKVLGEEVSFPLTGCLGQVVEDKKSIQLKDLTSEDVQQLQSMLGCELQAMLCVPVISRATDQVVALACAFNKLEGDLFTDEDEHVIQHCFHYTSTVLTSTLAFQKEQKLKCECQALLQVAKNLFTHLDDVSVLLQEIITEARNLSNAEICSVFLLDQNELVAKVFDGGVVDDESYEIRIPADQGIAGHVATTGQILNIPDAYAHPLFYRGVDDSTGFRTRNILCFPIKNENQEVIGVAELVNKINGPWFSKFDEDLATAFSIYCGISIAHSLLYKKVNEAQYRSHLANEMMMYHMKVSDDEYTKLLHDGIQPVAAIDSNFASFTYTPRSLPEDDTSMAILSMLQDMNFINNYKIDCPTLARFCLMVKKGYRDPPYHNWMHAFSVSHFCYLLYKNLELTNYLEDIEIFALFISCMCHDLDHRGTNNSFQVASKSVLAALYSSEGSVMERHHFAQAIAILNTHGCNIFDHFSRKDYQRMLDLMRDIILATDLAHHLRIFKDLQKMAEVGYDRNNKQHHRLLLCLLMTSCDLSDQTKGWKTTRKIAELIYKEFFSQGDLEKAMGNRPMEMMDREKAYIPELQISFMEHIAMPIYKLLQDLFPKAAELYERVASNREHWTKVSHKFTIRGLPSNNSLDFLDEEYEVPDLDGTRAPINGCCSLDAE

[3] = target: T3, purified cyclooxygenase (Type 1) from ram seminal vesicles (Ovis aries, UniProt P05979); assay: Purified cyclooxygenase (Type 1) activity; type: biochemical; conditions: FIG. 5
T3 construct: using purified cyclooxygenase from ram seminal vesicles as described previously; from tissue; host or cells: ram seminal vesicles
T3 sequence (P05979 25-600): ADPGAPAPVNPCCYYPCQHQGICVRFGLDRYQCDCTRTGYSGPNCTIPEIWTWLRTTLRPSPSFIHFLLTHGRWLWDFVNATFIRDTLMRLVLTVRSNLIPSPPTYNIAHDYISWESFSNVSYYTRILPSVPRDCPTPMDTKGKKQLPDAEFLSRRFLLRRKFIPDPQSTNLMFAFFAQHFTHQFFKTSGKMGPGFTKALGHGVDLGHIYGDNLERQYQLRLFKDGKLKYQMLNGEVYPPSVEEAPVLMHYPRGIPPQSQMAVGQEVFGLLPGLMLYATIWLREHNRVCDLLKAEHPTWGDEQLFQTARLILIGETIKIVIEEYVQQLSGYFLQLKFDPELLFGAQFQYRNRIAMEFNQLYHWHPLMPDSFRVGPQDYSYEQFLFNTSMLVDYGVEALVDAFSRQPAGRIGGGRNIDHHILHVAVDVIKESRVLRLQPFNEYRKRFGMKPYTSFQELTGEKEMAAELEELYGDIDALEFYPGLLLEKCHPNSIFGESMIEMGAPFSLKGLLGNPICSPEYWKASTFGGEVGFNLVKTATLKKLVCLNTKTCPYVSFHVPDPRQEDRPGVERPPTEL

[4] = target: cGMP PDE purified from human colon HT-29 cultured tumor cells (Homo sapiens, UniProt O76074); assay: cGMP PDE inhibition assay; type: biochemical; conditions: for PDE Inhibition: Table 9 qualitative profile; for IC50: read-out: IC50 for inhibition of cGMP PDE
[5] = system: HT-29 colon adenocarcinoma cells; assay: Apoptosis by DNA fragmentation assay in HT-29 cells; type: cell-based, human; conditions: for Apoptosis: Table 9 qualitative profile; on Apoptosis: key: −: Not active; +: Slightly active; + +: Moderately active; + + +: Strongly active; + + + +: Highly active
HT-29 cells = assay: Growth inhibition of HT-29 cells (SRB assay; trypan blue counting in time course); type: cell-based, human; conditions: for Growth Inhibition: Table 9 qualitative profile
[6] = system: premalignant lesions in mouse mammary gland organ culture; assay: Mammary gland organ culture model; type: cell-based; conditions: Table 9 qualitative profile; further: key: −: Not active; +: Slightly active; + +: Moderately active; + + +: Strongly active; + + + +: Highly active
Description: Test compounds identified by the above methods can be tested for antineoplastic activity by their ability to inhibit the incidence of pre-neoplastic lesions in a mammary gland organ culture system. This mouse mammary gland organ culture technique has been successfully used by other investigators to study the effects of known antineoplastic agents such as certain NSAIDs, retinoids, tamoxifen, selenium, and certain natural products, and is useful for validation of the screening method of the present invention.
For example, female BALB/c mice can be treated with a combination of estradiol and progesterone daily, in order to prime the glands to be responsive to hormones in vitro. The animals are sacrificed, and thoracic mammary glands are excised aseptically and incubated for ten days in growth media supplemented with insulin, prolactin, hydrocortisone, and aldosterone. DMBA (7,12-dimethylbenz(a)anthracene) is added to medium to induce the formation of premalignant lesions. Fully developed glands are then deprived of prolactin, hydrocortisone, and aldosterone, resulting in the regression of the glands but not the pre-malignant lesions.
The test compound is dissolved in DMSO and added to the culture media for the duration of the culture period. At the end of the culture period, the glands are fixed in 10% formalin, stained with alum carmine, and mounted on glass slides. The incidence of forming mammary lesions is the ratio of the glands with mammary lesions to […]. The incidence of mammary lesions in test compound treated glands is compared with that of the untreated glands.
The extent of the area occupied by the mammary lesions can be quantitated by projecting an image of the gland onto a digitation pad. The area covered by the gland is traced on the pad and considered as 100% of the area. The space covered by each of the non-regressed structures is also outlined on the digitization pad and quantitated by the computer.
Mammary gland organ culture experiment were performed as previously described (Mehta and Moon, Cancer Research, 46: 5832-5835, 1986).

Cyclooxygenase (COX) = target: T4, Cyclooxygenase (COX) (Ovis aries, UniProt P05979); assay: COX inhibition assay, single dose screen (Table 2); type: biochemical
T4 sequence (P05979 25-600): T3 sequence (P05979 25-600)

[7] = system: SW-480 colon adenocarcinoma cells
[8] = Seven-day dose-range finding study in rats; type: in vivo; conditions: any dose level
28-day study in rats = type: in vivo
[9] = system: LNCaP prostate tumor cell line; assay: Histone-associated DNA fragmentation in LNCaP cells; type: cell-based; conditions: 50 μM, up to 4 days
Method: (§1) The androgen-sensitive prostate tumor cell line, LNCaP (from ATCC (Rockville, Md.)) was propagated under standard conditions using […] medium containing 5% fetal calve serum and 2 mM glutamine. Primary prostate epithelial cell cultures (PrEC) derived from normal prostate (from Clonetics Inc. (San Diego, Calif.)) were grown under the same conditions as the tumor cell line except a serum-free medium optimized for the growth of such cultures was used (Clonetics Inc). For the experiments, LNCaP or PrEC cells were seeded in 96 well plates at a density of 10,000 cells per well. After 24 hours, the cells were treated with either vehicle (0.1% DMSO) or 50 μM Compound I (free base) solubilized in DMSO. After various drug treatment times (4, 24, 48, 72, or 99 hours) the cells were lysed and processed for measurement of histone-associated DNA as an indicator of apoptotic cell death (see, Piazza et al., Cancer Research 57: 2452-2459, 1997).

[10] = system: PrEC primary prostate epithelial cells derived from normal prostate; assay: Histone-associated DNA fragmentation in PrEC cells; type: cell-based; conditions: 50 μM, up to 4 days
Method: as §1

[11] = Single, escalating dose human study; type: in vivo
[12] = dog, in vivo
[13] = system: PDE4 purified from human colon HT-29 cultured tumor cells; assay: PDE4 inhibition assay; type: biochemical
Method: (Thompson, W. J., Teraski, W. L., Epstein, P. M., Strada, S. J., Advances in Cyclic Nucleotide Research, 10:69-92, 1979, which is incorporated herein by reference). […] The mixture is incubated at 30° C. for 10 minutes with isolated PDE of this invention. Reactions are terminated, for example, by boiling the reaction mixture for 75 seconds. After cooling on ice, 100 μl of 0.5 mg/mL snake venom (O. Hannah venom available from Sigma) is added and incubated for 10 minutes at 30° C. This reaction is then terminated by the addition of an alcohol, e.g. 1 mL of 100% methanol. Assay samples are applied to 1 mL Dowex 1-X8 column; and washed with 1 mL of 100% methanol. The amount of radioactivity in the breakthrough and the wash from the column is combined and measured with a scintillation counter. The degree of phosphodiesterase inhibition is determined by calculating the amount of radioactivity in drug-treated reactions and comparing against a control sample (a reaction mixture lacking the tested compound but with drug solvent).

[14] = target: T5, cGMP binding sites of GST-cGB-PDE5 fusion protein (Homo sapiens, UniProt O76074); assay: cGMP binding assay with GST-cGB-PDE5 fusion protein; conditions: 3H-cGMP 2 μM
T5 construct: made in house; host or cells: E. coli BL21 (DE3)

[15] = system: SW-480 colon adenocarcinoma cells; assay: Apoptosis fold induction protocol (DNA fragmentation, Table 4); conditions: Homo sapiens, SW480, read-out: Fold induction at 100 μM (apoptosis), 100 μM; cell line not given

Structure (SMILES): COc1cc2ncnc(Nc3ccc(F)c(Cl)c3)c2cc1OCCCN1CCOCC1 [Iressa, 4-quinazolinamine, N-(3-chloro-4-fluorophenyl)-7-methoxy-6-[3-(4-morpholinyl)propoxy]-(9CI)]
human breast xenograft growth (human breast xenograft): inhibits human breast xenograft growth

Structure (SMILES): CC1=C(CC(=O)NCc2ccccc2)c2cc(F)ccc2/C1=C\c1ccncc1 [Compound I, (Z)-5-fluoro-2-methyl-(4-pyridylidene)-3-(N-benzyl)indenylacetamide hydrochloride]
hematology, blood chemistry, microscopic pathology, seven-day study [8]: No hematological or blood chemistry changes nor any microscopic pathology changes
liver weights, 28-day study (28-day study in rats; 2000 mg/kg/day): statistically significant increase in liver weights
thyroid weights, 28-day study (28-day study in rats; 2000 mg/kg/day): statistically significant increases in thyroid weights
histopathological evaluation, 28-day study (28-day study in rats; generally limited to a small number of animals at 2000 mg/kg/day): traces of follicular cell hypertrophy, increased numbers of mitotic figures (suggestive of possible cell proliferation) in the thyroid gland and mild centrilobular hypertrophy in the liver
histone-associated fragmented DNA in LNCaP cell cultures [9]: time-dependent increase
DNA fragmentation in PrEC cells [10]: did not affect DNA fragmentation
safety in human study [11]: safe
drug-related effects, single and seven consecutive doses in dogs [12]: At no time in either dosing phase were any obvious signs of drug-related effects observed
signs of toxicity, single dose in dogs ([12]; 1000 mg/kg): no signs of toxicity

Further lines, with some results ahead:

% Inhibition at 10 μM (cGMP PDE) [4]: 75%
PDE Inhibition [4]: + + + +
IC50 [4]: 0.08 µM
Structure (SMILES): COc1cc(/C=C2/C(C)=C(CC(=O)NCc3ccccc3)c3cc(F)ccc32)cc(OC)c1OC [Compound E, (Z)-5-Fluoro-2-methyl-1-(3,4,5-trimethoxybenzylidene)-3-indenylacetamide, N-benzyl]
competitive (with cGMP) inhibition/binding, Peak A [1]: competitively (with cGMP) bind; also recorded: competitively inhibited
competitive (with cGMP) inhibition/binding, Peak B [2]: competitively (with cGMP) binds; also recorded: competitively inhibited
COX-I inhibition [3]: neither test compound B and E significantly inhibits COX-I
Apoptosis [5]: + + + +
Growth Inhibition (HT-29 cells): + + + +
Mammary Gland Organ Culture [6]: + + + +

% Inhibition at 100 μM (cyclooxygenase) (Cyclooxygenase (COX); 100 μM): <25%
% Inhibition at 10 μM (cGMP PDE) [4]: <25%
PDE Inhibition [4]: −
Structure (SMILES): CCN(CC)CCSC12CC(=O)OC1(C)/C(=C/c1ccc(S(C)(=O)=O)cc1)c1ccc(F)cc12 (racemic) [A, rac-threo-(E)-1-(N,N′-diethylaminoethanethio)-1-(butan-1′,4′-olido)-[3′,4′:1,2]-6-fluoro-2-methyl-3-(p-methylsulfonylbenzylidene)-indan]
Apoptosis [5]: + +
% Inhibition at 100 μM (growth) (HT-29 cells; 100 μM): 68%
Growth Inhibition (HT-29 cells): + + +
Mammary Gland Organ Culture [6]: + +
Fold induction at 100 μM (apoptosis) [7]: <2.0 fold

inhibition at 100 µM (Cyclooxygenase (COX)): < 25%
COX Inhibition (Cyclooxygenase (COX); Table 9 qualitative profile): −
PDE Inhibition [4]: + + +
inhibition at 10 µM ([4]; read-out: % Inhibition at 10 μM (cGMP PDE), 10 μM): < 25%
IC50 [4]: 18 µM
inhibition at 20 µM ([4]; read-out: inhibition of cGMP PDE at 20 μM, 20 μM): > 50%
IC50 [13]: 58 µM
EC50 ([5]; Homo sapiens, HT-29, 48 hours): ~175 µM
Structure (SMILES): COc1cc(/C=C2/C(C)=C(CC(=O)O)c3cc(F)ccc32)cc(OC)c1OC [Compound B, (Z)-5-Fluoro-2-methyl-1-(3,4,5-trimethoxybenzylidene)-3-acetic acid]
COX-I inhibition [3]: neither test compound B and E significantly inhibits COX-I
Apoptosis [5]: + + +
Growth Inhibition (HT-29 cells): + + +
Mammary Gland Organ Culture [6]: + +
competition with cGMP in binding of GST-cGB-PDE5 [14]: do not bind to the cGMP binding sites of PDE5
fold induction at 100 µM [15]: > 2

Source: patent publication US20030232862A1 (priority 2002, published 2003)
